From BindingDB's records for doi:10.1021/jm970021c (Warner-Lambert, 1997)

Assay: Agonist activation of human dopamine receptor stimulating mitogenesis in Dopamine receptor D4-transfected CHO pro-5 cells using [3H]thymidine as radioligand

SMILES	EC50 [nM]
N#Cc1ccccc1N1CCN(CNC(=O)c2cccc(Cl)c2)CC1 [3-Chloro-N-[4-(2-cyano-phenyl)-piperazin-1-ylmethyl]-benzamide]	5.3
COc1ccccc1N1CCN(CNC(=O)c2cccc(Cl)c2)CC1 [3-Chloro-N-[4-(2-methoxy-phenyl)-piperazin-1-ylmethyl]-benzamide]	15
O=C(NCN1CCN(c2ccccc2Cl)CC1)c1ccc(Cl)cc1 [4-Chloro-N-[4-(2-chloro-phenyl)-piperazin-1-ylmethyl]-benzamide]	8.4
N#Cc1ccccc1N1CCN(CNC(=O)c2ccc(Cl)cc2)CC1 [4-Chloro-N-[4-(2-cyano-phenyl)-piperazin-1-ylmethyl]-benzamide]	> 3.9
COc1ccccc1N1CCN(CNC(=O)c2ccc(Cl)cc2)CC1 [4-Chloro-N-[4-(2-methoxy-phenyl)-piperazin-1-ylmethyl]-benzamide]	8.4
Cc1cccc(C(=O)NCN2CCN(c3ccccc3Cl)CC2)c1 [N-[4-(2-Chloro-phenyl)-piperazin-1-ylmethyl]-3-methyl-benzamide]	16
Cc1ccc(C(=O)NCN2CCN(c3ccccc3Cl)CC2)cc1 [N-[4-(2-Chloro-phenyl)-piperazin-1-ylmethyl]-4-methyl-benzamide]	218
O=C(NCN1CCN(c2ccccc2Cl)CC1)c1ccccc1 [N-[4-(2-Chloro-phenyl)-piperazin-1-ylmethyl]-benzamide]	106
Cc1ccc(C(=O)NCN2CCN(c3ccccc3C#N)CC2)cc1 [N-[4-(2-Cyano-phenyl)-piperazin-1-ylmethyl]-4-methyl-benzamide]	1.2
N#Cc1ccccc1N1CCN(CNC(=O)c2ccccc2)CC1 [N-[4-(2-Cyano-phenyl)-piperazin-1-ylmethyl]-benzamide]	24
COc1ccccc1N1CCN(CNC(=O)c2cccc(C)c2)CC1 [N-[4-(2-Methoxy-phenyl)-piperazin-1-ylmethyl]-3-methyl-benzamide]	13
COc1ccccc1N1CCN(CNC(=O)c2ccc(C)cc2)CC1 [N-[4-(2-Methoxy-phenyl)-piperazin-1-ylmethyl]-4-methyl-benzamide]	3.4
COc1ccccc1N1CCN(CNC(=O)c2ccccc2)CC1 [N-[4-(2-Methoxy-phenyl)-piperazin-1-ylmethyl]-benzamide]	31
